According to patent US12077503B2, “Substituted cyclic amides and their use as herbicides” (FMC CORPORATION, priority 2015, dated 2024):
Read-outs that look alike come from different tables or passages of the source.

Assays:
Assay type in all cases: in vivo
[1] = test system: Kochia (Kochia scoparia); assay: Test A preemergence; details: Bassia scoparia, pre-emergence, 240 h; for pest or weed control at 125 g/ha: 125 g ai/ha, Preemergence, visual injury rating after approximately 10 d, read-out: Kochia plant response rating (0 to 100 scale, 0 is no effect, 100 is complete control); for pest or weed control at 500 g/ha: 500 g ai/ha, preemergence, visual injury rating about 10 d after treatment, 0 to 100 scale (0 no effect, 100 complete control), read-out: Kochia plant response rating
How it was run: (§1)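 Ratings of 0 (no effect) to 100 (complete control) come from visual comparison with untreated controls roughly 10 d after treatment. Test chemicals, formulated in a non-phytotoxic solvent mixture with surfactant, were applied either as a preemergence directed soil spray on seeded soil or postemergence to one- to two-leaf plants 2 to 10 cm tall.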

[2] = test system: barnyardgrass (Echinochloa crus-galli); assay: Test A preemergence; details: Echinochloa crus-galli, pre-emergence, 240 h; for pest or weed control at 125 g/ha: 125 g ai/ha, Preemergence, visual injury rating after approximately 10 d, read-out: Barnyardgrass plant response rating (0 to 100 scale, 0 is no effect, 100 is complete control); for pest or weed control at 500 g/ha: 500 g ai/ha, preemergence, visual injury rating about 10 d after treatment, 0 to 100 scale (0 no effect, 100 complete control), read-out: Barnyardgrass plant response rating
How it was run: as §1

[3] = test system: giant foxtail (Setaria faberii); assay: Test A preemergence; details: Setaria faberi, pre-emergence, 240 h; for pest or weed control at 125 g/ha: 125 g ai/ha, Preemergence, visual injury rating after approximately 10 d, read-out: Foxtail, Giant plant response rating (0 to 100 scale, 0 is no effect, 100 is complete control); for pest or weed control at 500 g/ha: 500 g ai/ha, preemergence, visual injury rating about 10 d after treatment, 0 to 100 scale (0 no effect, 100 complete control), read-out: Foxtail, Giant plant response rating
How it was run: as §1

[4] = test system: pigweed (Amaranthus retroflexus); assay: Test A preemergence; details: Amaranthus retroflexus, pre-emergence, 240 h; for pest or weed control at 125 g/ha: 125 g ai/ha, Preemergence, visual injury rating after approximately 10 d, read-out: Pigweed plant response rating (0 to 100 scale, 0 is no effect, 100 is complete control); for pest or weed control at 500 g/ha: 500 g ai/ha, preemergence, visual injury rating about 10 d after treatment, 0 to 100 scale (0 no effect, 100 complete control), read-out: Pigweed plant response rating
[5] = test system: ragweed (common ragweed, Ambrosia elatior); assay: Test A preemergence; details: Ambrosia artemisiifolia, pre-emergence, 240 h; for pest or weed control at 125 g/ha: 125 g ai/ha, Preemergence, visual injury rating after approximately 10 d, read-out: Ragweed plant response rating (0 to 100 scale, 0 is no effect, 100 is complete control); for pest or weed control at 500 g/ha: 500 g ai/ha, preemergence, visual injury rating about 10 d after treatment, 0 to 100 scale (0 no effect, 100 complete control), read-out: Ragweed plant response rating
How it was run: as §1

[6] = test system: ryegrass, Italian (Italian ryegrass, Lolium multiflorum); assay: Test A preemergence; details: Lolium multiflorum, pre-emergence, 240 h; for pest or weed control at 125 g/ha: 125 g ai/ha, Preemergence, visual injury rating after approximately 10 d, read-out: Ryegrass, Italian plant response rating (0 to 100 scale, 0 is no effect, 100 is complete control); for pest or weed control at 500 g/ha: 500 g ai/ha, preemergence, visual injury rating about 10 d after treatment, 0 to 100 scale (0 no effect, 100 complete control), read-out: Ryegrass, Italian plant response rating
How it was run: as §1

[7] = test system: Galium (catchweed bedstraw, Galium aparine); assay: Test A postemergence; details: Galium, post-emergence, 240 h, read-out: Plant response rating, Galium; for pest or weed control at 125 g/ha: 125 g ai/ha, Postemergence, visual injury after approximately 10 d, 0 to 100 scale where 0 is no effect and 100 is complete control
How it was run: as §1

[8] = test system: Kochia (Kochia scoparia); assay: Test A postemergence; details: Bassia scoparia, post-emergence, 240 h, read-out: Plant response rating, Kochia; for pest or weed control at 125 g/ha: 125 g ai/ha, Postemergence, visual injury after approximately 10 d, 0 to 100 scale where 0 is no effect and 100 is complete control
How it was run: as §1

[9] = test system: barnyardgrass (Echinochloa crus-galli); assay: Test A postemergence; details: Echinochloa crus-galli, post-emergence, 240 h, read-out: Plant response rating, Barnyardgrass; for pest or weed control at 125 g/ha: 125 g ai/ha, Postemergence, visual injury after approximately 10 d, 0 to 100 scale where 0 is no effect and 100 is complete control
How it was run: as §1

[10] = test system: blackgrass (Alopecurus myosuroides); assay: Test A postemergence; details: Alopecurus myosuroides, post-emergence, 240 h, read-out: Plant response rating, Blackgrass; for pest or weed control at 125 g/ha: 125 g ai/ha, Postemergence, visual injury after approximately 10 d, 0 to 100 scale where 0 is no effect and 100 is complete control
How it was run: as §1

[11] = test system: corn (Zea mays); assay: Test A postemergence; details: Zea mays, post-emergence, 240 h; for Corn plant response rating (crop injury, 0 = no effect, 100 = complete kill) at 125 g/ha: 125 g ai/ha, Postemergence, visual injury after approximately 10 d, 0 to 100 scale where 0 is no effect and 100 is complete control
How it was run: as §1

[12] = test system: giant foxtail (Setaria faberii); assay: Test A postemergence; details: Setaria faberi, post-emergence, 240 h, read-out: Plant response rating, Foxtail, Giant; for pest or weed control at 125 g/ha: 125 g ai/ha, Postemergence, visual injury after approximately 10 d, 0 to 100 scale where 0 is no effect and 100 is complete control
How it was run: as §1

[13] = test system: pigweed (Amaranthus retroflexus); assay: Test A postemergence; details: Amaranthus retroflexus, post-emergence, 240 h, read-out: Plant response rating, Pigweed; for pest or weed control at 125 g/ha: 125 g ai/ha, Postemergence, visual injury after approximately 10 d, 0 to 100 scale where 0 is no effect and 100 is complete control
How it was run: as §1

[14] = test system: ragweed (common ragweed, Ambrosia elatior); assay: Test A postemergence; details: Ambrosia artemisiifolia, post-emergence, 240 h, read-out: Plant response rating, Ragweed; for pest or weed control at 125 g/ha: 125 g ai/ha, Postemergence, visual injury after approximately 10 d, 0 to 100 scale where 0 is no effect and 100 is complete control
How it was run: as §1

[15] = test system: ryegrass, Italian (Italian ryegrass, Lolium multiflorum); assay: Test A postemergence; details: Lolium multiflorum, post-emergence, 240 h, read-out: Plant response rating, Ryegrass, Italian; for pest or weed control at 125 g/ha: 125 g ai/ha, Postemergence, visual injury after approximately 10 d, 0 to 100 scale where 0 is no effect and 100 is complete control
How it was run: as §1

[16] = test system: wheat (Triticum aestivum); assay: Test A postemergence; details: Triticum aestivum, post-emergence, 240 h, read-out: Plant response rating, Wheat; for plant injury at 125 g/ha: 125 g ai/ha, Postemergence, visual injury after approximately 10 d, 0 to 100 scale where 0 is no effect and 100 is complete control
How it was run: as §1

[17] = test system: barnyardgrass (Echinochloa crus-galli); assay: Test B flooded paddy test; details: Echinochloa crus-galli, 250 g ai/ha, Flood, read-out: Barnyardgrass plant response rating
How it was run: (§2)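 Compound goes directly into floodwater once pots are flooded 3 cm above soil, targeting plants at two leaves; the water depth is then held for the test duration. Plants sit 13–15 d in a greenhouse and are rated visually, 100 denoting complete control.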

[18] = test system: ducksalad (Heteranthera limosa); assay: Test B flooded paddy test; details: Heteranthera limosa, 250 g ai/ha, Flood, read-out: Ducksalad plant response rating
How it was run: as §2

[19] = test system: rice (Oryra sativa); assay: Test B flooded paddy test; details: Oryza sativa, 250 g ai/ha, Flood, read-out: Rice plant response rating
How it was run: as §2

[20] = test system: sedge, umbrella (small-flower umbrella sedge, Cyperus difformis); assay: Test B flooded paddy test; details: Cyperus difformis, 250 g ai/ha, Flood, read-out: Sedge, Umbrella plant response rating
How it was run: as §2

[21] = 500 g ai/ha, postemergence, visual injury, 0 to 100 scale (0 no effect, 100 complete control), approx. 10 d
[22] = 0 to 100 scale where 0 is no effect and 100 is complete control
[23] = scale of 0 to 100 where 0 is no effect and 100 is complete control

CSc1ccccc1NC(=O)[C@H]1C(=O)N(C)C[C@@H]1c1ccc(C)c(Cl)c1 [Compound 1015]
40%: pest or weed control at 500 g/ha [4] | pest or weed control at 125 g/ha [6] | pest or weed control at 125 g/ha [7] | pest or weed control at 500 g/ha [14, 21] | pest or weed control at 250 g/ha [19, 22]
70%: pest or weed control at 500 g/ha [7, 21] | Corn plant response rating (crop injury, 0 = no effect, 100 = complete kill) at 125 g/ha [11]
0%: pest or weed control at 125 g/ha [1] | pest or weed control at 125 g/ha [4] | pest or weed control at 125 g/ha [5] | pest or weed control at 125 g/ha [8] | pest or weed control at 125 g/ha [10] | pest or weed control at 125 g/ha [14] | plant injury at 125 g/ha [16]
80%: pest or weed control at 125 g/ha [12] | pest or weed control at 500 g/ha [12, 21]
95%: pest or weed control at 250 g/ha [17, 22]
30%: pest or weed control at 125 g/ha [13] | pest or weed control at 125 g/ha [15]
90%: pest or weed control at 125 g/ha [2] | pest or weed control at 500 g/ha [2] | pest or weed control at 125 g/ha [3] | pest or weed control at 500 g/ha [3] | pest or weed control at 500 g/ha [6] | pest or weed control at 125 g/ha [9] | pest or weed control at 500 g/ha [9, 21] | Corn plant response rating (crop injury, 0 = no effect, 100 = complete kill) at 500 g/ha [11, 21] | pest or weed control at 250 g/ha [18, 22]
35%: pest or weed control at 250 g/ha [20, 22]
60%: pest or weed control at 500 g/ha [1] | plant injury at 500 g/ha [16, 21]
50%: pest or weed control at 500 g/ha [5] | pest or weed control at 500 g/ha [8, 21] | pest or weed control at 500 g/ha [10, 21] | pest or weed control at 500 g/ha [13, 21] | pest or weed control at 500 g/ha [15, 21]

CCOc1cccc([C@H]2CNC(=O)[C@@H]2C(=O)Nc2cccc(F)c2F)c1 [Compound 950]
90%: pest or weed control at 500 g/ha [3] | pest or weed control at 125 g/ha [9]
60%: pest or weed control at 500 g/ha [1] | pest or weed control at 125 g/ha [3]
95%: pest or weed control at 250 g/ha [18, 23]
0%: pest or weed control at 125 g/ha [4] | pest or weed control at 500 g/ha [4] | pest or weed control at 125 g/ha [5] | pest or weed control at 125 g/ha [8] | pest or weed control at 125 g/ha [10] | Corn plant response rating (crop injury, 0 = no effect, 100 = complete kill) at 125 g/ha [11] | pest or weed control at 125 g/ha [12] | pest or weed control at 125 g/ha [13] | pest or weed control at 125 g/ha [14] | plant injury at 125 g/ha [16] | pest or weed control at 250 g/ha [19, 23] | pest or weed control at 250 g/ha [20, 23]
65%: pest or weed control at 250 g/ha [17, 23]
20%: pest or weed control at 500 g/ha [5] | pest or weed control at 125 g/ha [6] | pest or weed control at 125 g/ha [7] | pest or weed control at 125 g/ha [15]
100%: pest or weed control at 125 g/ha [2] | pest or weed control at 500 g/ha [2]
50%: pest or weed control at 125 g/ha [1]
70%: pest or weed control at 500 g/ha [6]
